Measurements reported in PubChem BioAssay (NCI).
Where “and” joins values, the source holds several entries; their conditions need not be identical. Identical values can stand only once.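 Where inhibition never reached the appropriate level, the endpoint shown equals the highest concentration tested. Otherwise, values were interpolated linearly from a five-concentration, 48-hour dose response in 96-well plates. Here, GI50 denotes the concentration required for 50% inhibition of growth. TGI: total growth inhibition.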

How the values were obtained:
Assay in all cases: NCI anticancer screen, dose series, 48 h
[1] = tested on: OVCAR-8 ovarian
[2] = tested on: SR leukemia
[3] = tested on: OVCAR-5 ovarian
[4] = tested on: 786-0 renal
[5] = tested on: OVCAR-4 ovarian
[6] = tested on: UACC-257 melanoma
[7] = tested on: DU-145 prostate
[8] = tested on: A549 NSCLC
[9] = tested on: SW-620 colon
[10] = tested on: HL-60(TB) leukemia

SMILES | GI50 [1] [µM] | TGI [1] | GI50 [2] [µM] | TGI [2] [µM] | GI50 [3] | TGI [3] [µM] | GI50 [4] [µM] | TGI [4] | GI50 [5] [µM] | TGI [5] | GI50 [6] | TGI [6] [µM] | GI50 [7] [µM] | TGI [7] | GI50 [8] | TGI [8] | GI50 [9] | TGI [9] | GI50 [10] [µM] | TGI [10]
c1ccc(-c2oc(-c3ccccc3)c(CN3CCCCC3)c2CN2CCCCC2)cc1 | 3.91 | 17.1 µM | 2.52 | 6.06 | 1.82 µM | 8.85 | 2.8 | 12.7 µM | 2.65 | 13.6 µM | 3 µM | 8.08 | 7.72 | 21.6 µM | 5.55 µM | 24.8 µM | 3.05 µM | 16.4 µM | 1.96 | 5.28 µM
COc1cc(/C=C/C(=O)c2cccc(-n3cc(-c4cc(OC)c(OC)c(OC)c4)[nH]c3=O)c2)cc(OC)c1OC | 2.32 | 8.9 µM | 0.386 | > 100 | 4.38 µM | 13.4 | 1.59 | 3.14 µM | 3.77 | 55.6 µM | 2.22 µM | 5.45 | 2.98 | 13.6 µM | 3.03 µM | 18.5 µM | – | – | 0.922 | 6.39 µM
CSC1=NC(=Nc2c(C)cccc2C)C2(CCC(C(C)(C)C)CC2)N1c1ccc(Cl)cc1 (centres undefined) | 15.1 | > 100 µM | 4.21 | > 100 | > 100 µM | > 100 | 68.7 | > 100 µM | > 100 | > 100 µM | – | – | > 100 | > 100 µM | – | – | 27 µM | > 100 µM | 7.94 | > 100 µM
O=C1NC(=S)S/C1=C\c1cn(-c2ccccc2)nc1-c1ccccc1 | 11.4 | > 100 µM | 7.29 | 49.7 | 14.3 µM | 29.6 | 3.92 | 28.5 µM | 8.14 | > 100 µM | 13.2 µM | 73.9 | 12.6 | > 100 µM | 5.88 µM | > 100 µM | 19.6 µM | > 100 µM | 4.83 | 59.8 µM
O=C(O)C1=C/C(=C(/c2ccccc2)c2cc(C(=O)O)c(O)c3ccccc23)c2ccccc2C1=O | – | > 100 µM | – | > 100 | – | > 100 | – | > 100 µM | – | > 100 µM | – | > 100 | – | > 100 µM | – | > 100 µM | – | > 100 µM | – | –
COc1ccc(-c2cc(=O)c3c(O)c(OC)c(OC)c(OC)c3o2)cc1OC | – | > 100 µM | – | > 100 | – | > 100 | – | > 100 µM | – | > 100 µM | – | > 100 | – | > 100 µM | – | > 100 µM | – | – | – | > 100 µM
COc1cc2cc(Oc3ccc(NC(=O)Nc4cc(C(F)(F)F)cc(C(F)(F)F)c4)cc3)c(C)nc2cc1OCCN1CCOCC1 | 1.67 | 12.8 µM | – | – | 2.18 µM | 7.97 | 1.28 | 3.65 µM | 1.88 | 6.95 µM | 1.4 µM | 4.24 | 1.93 | 7.05 µM | 1.72 µM | 7.23 µM | 1.72 µM | 7.17 µM | 1.62 | 4.93 µM
O=C(CS(=O)(=O)c1nc2ccccc2nc1-c1ccccc1)Nc1ccc(F)cc1 | 94.3 | > 100 µM | – | – | > 100 µM | > 100 | > 100 | > 100 µM | 21.6 | 49.4 µM | > 100 µM | > 100 | 36.1 | > 100 µM | > 100 µM | > 100 µM | 46.6 µM | > 100 µM | 1.8 | 10.3 µM
CSc1ccc(C2=C(c3ccccc3)C(=O)OC2)cc1 | 0.639 | > 100 µM | – | – | 5.18 µM | > 100 | 1.21 | 19.7 µM | 21.2 | > 100 µM | – | > 100 | 4.49 | > 100 µM | 0.677 µM | > 100 µM | 1 µM | > 20.1 µM | 0.35 | 2.07 µM
Cc1ccc(CNc2ccc(Br)cc2)cc1 | – | 65.3 µM | – | > 100 | – | > 100 | – | > 100 µM | – | – | – | > 100 | – | > 100 µM | – | > 100 µM | – | > 100 µM | – | > 100 µM
COc1cc2oc(-c3cccc(C(=O)Nc4ccc(Cl)cc4)c3)cc(=O)c2c(OC)c1OC | 3.44 | > 100 µM | 0.493 | > 100 | 1.87 µM | > 100 | 2.53 | > 100 µM | 3.05 | > 100 µM | 2.53 µM | 5.72 | 2.85 | > 100 µM | 3.56 µM | > 100 µM | 4.87 µM | > 100 µM | – | –
Cc1ccccc1N=Nc1c(O)ccc2ccccc12 | – | > 100 µM | – | – | – | > 100 | – | > 100 µM | – | > 100 µM | – | > 100 | – | > 100 µM | – | > 100 µM | – | > 100 µM | – | > 100 µM
O=C1CC2OCC=C3CN4CCC56c7ccccc7N1C5C2C3CC46O (centres undefined) | – | > 100 µM | – | – | – | > 100 | – | > 100 µM | – | > 100 µM | – | > 100 | – | > 100 µM | – | > 100 µM | – | > 100 µM | – | > 100 µM
CCOC(=O)CSc1cc(Cl)c(C)cc1S(=O)(=O)/N=C(/N=C/c1ccc([N+](=O)[O-])s1)NNC | 32.7 | 80.2 µM | – | – | 6.02 µM | 38.4 | 20.2 | 42.5 µM | 20.7 | 62.4 µM | 28.7 µM | 67.2 | 7.45 | 41.2 µM | 32.7 µM | > 100 µM | 31.1 µM | > 100 µM | 21.7 | 53.7 µM
COC1=C(N)C(=O)c2nc(-c3nc(C(=O)O)c(C)c(-c4ccc(OC)c(OC)c4O)c3N)ccc2C1=O | – | 0.00226 µM and 0.022 µM and 0.0194 µM | – | – | 0.00332 µM and 0.00352 µM and 0.0143 µM | – | – | 0.00261 µM and 0.0217 µM and < 0.01 µM | – | 0.0183 µM and 0.0416 µM and 0.0515 µM | 0.00321 µM and 0.0122 µM and 0.0224 µM | – | – | 0.0409 µM and 0.0193 µM | 0.00135 µM and 0.00894 µM | 0.00428 µM and 0.0325 µM and 0.0216 µM | 0.00124 µM and 0.00653 µM | 0.00424 µM and 0.0268 µM and 0.0181 µM | – | 0.00499 µM and 0.0204 µM
